One compound from patent publication US20120028917A1, “Use Of N-(4-((3-(2-Amino-4-Pyrimidinyl)-2-Pyridinyl)Oxy)Phenyl)-4-(4-Methyl-2-Thienyl)-1-Phthalazinamine In The Treatment Of Antimitotic Agent Resistant Cancer” (Amgen Inc., priority 2009, published 2012) can be followed below.

One assay has as its system PC3. Nature of the assay: Antiproliferative assay (ArrayScan VTi). Format: cell-based. Conditions: Homo sapiens, PC-3; PC3 (Prostate); 24 h treatment, then 48 h without compound. The method, then: Tumor cells were seeded in a Packard View 96-well plate in 100 μL of appropriate complete media at a density of 3000 or 5000 cells/well depending on the cell line growth kinetics (broadly defined as slow vs. fast). All dilutions were performed using Biomek FX workstation. The next day cells were treated with AMG 900 (11-point dose range 0.156 to 0.0003 μM) with a final DMSO concentration of 0.12% in media. After 24 hours, the media containing compound was removed and the cells were washed with complete media. The cells were then incubated in 100 μL of fresh complete media (without compound) for 48 hours. After 48 hours, the cells were fixed by adding 100 μL of fixation buffer to 100 μL of complete media. The cells were incubated at room temperature for 10 minutes. The fixation buffer was aspirated and the cells were then permeabilized in 100 μL wash buffer for 30 minutes at room temperature followed by the addition of 100 μL of DNA stain buffer and incubated at room temperature for 30 minutes in the dark. Next, the cells were washed with 100 μL of wash buffer and stored in 100 μL 1×PBS at 4 degrees Celsius until analysis. Cellular data was attained by scanning the 96-well plates on an ArrayScan VTi imaging system (Cellomics). Quantification of individual cell nuclear area and intensity was performed based on Hoechst 33342 DNA dye fluorescence. A threshold on the nuclear area based on the DMSO-treated control well was set to quantify the number of normal size nuclei from nuclear debris and polyploidy cells. This threshold value was applied to enumerate the number of normal nuclei in six image fields/well using a magnification of 10×. The dose-concentration curves and EC50 values were calculated using a 4-parameter equation.

The next assay concerns COLO 205 xenograft. The experiment in a line: Xenograft tumor growth inhibition (Example 7). In kind it is in vivo, mice. Conditions: COLO 205, Colon; oral 15 mg/kg b.i.d. 2 consecutive days per week or 3 mg/kg b.i.d. every day, 3 weeks. The method, then:
(§1) The in-vivo effect of AMG 900 on tumor growth was further evaluated in a panel of human xenografts from five different tumor types (breast, colon, lung, pancreatic, and uterine), including three MDR xenograft models. Mice bearing established tumors were orally administered AMG 900 at 15 mg/kg b.i.d. for 2 consecutive days per week for 3 weeks or at 3 mg/kg b.i.d. every day for 3 weeks. The maximum percentage of tumor growth inhibition (TGI) is reported, in Table 7 below, for each xenograft model. The percentage of TGI was calculated as the difference between the change in vehicle-treated control and AMG 900-treated tumor volumes during the study period.

The next assay has as its system NCI-H460 xenograft. Nature of the assay: Xenograft tumor growth inhibition (Example 7). Conditions: NCI-H460, Lung; oral 15 mg/kg b.i.d. 2 consecutive days per week or 3 mg/kg b.i.d. every day, 3 weeks. In kind it is in vivo, mice. Here is the method:
as §1

In assay [1] the test system is MES-SA-Dx5 (MDR) xenograft. The experiment in a line: Xenograft tumor growth inhibition (Example 7). In kind it is in vivo, mice. To be noted: Uterine, oral 15 mg/kg b.i.d. 2 consecutive days per week or 3 mg/kg b.i.d. every day, 3 weeks. The method, then:
as §1

The test system of another assay is HCT-15 (MDR) xenograft. The experiment in a line: Xenograft tumor growth inhibition (Example 7). In kind it is in vivo, mice. To be noted: Colon, oral 15 mg/kg b.i.d. 2 consecutive days per week or 3 mg/kg b.i.d. every day, 3 weeks. The method, then: as §1
The next assay deals with MES-SA xenograft. The experiment in a line: Xenograft tumor growth inhibition (Example 7). Conditions: Uterine, oral 15 mg/kg b.i.d. 2 consecutive days per week or 3 mg/kg b.i.d. every day, 3 weeks. In kind it is in vivo, mice. The method, then: as §1
The next assay relates to MDA-MB-231 xenograft. Nature of the assay: Xenograft tumor growth inhibition (Example 7). Format: in vivo, mice. Conditions: MDA-MB-231, Breast; oral 15 mg/kg b.i.d. 2 consecutive days per week or 3 mg/kg b.i.d. every day, 3 weeks. The method, then:
as §1

Assay [2] has as its system NCI-H460-PTX (MDR) xenograft. Nature of the assay: Xenograft tumor growth inhibition (Example 7). Format: in vivo, mice. To be noted: Lung, oral 15 mg/kg b.i.d. 2 consecutive days per week or 3 mg/kg b.i.d. every day, 3 weeks. Here is the method: as §1
The subject of assay [3] is 32 human tumor cell lines. Nature of the assay: Antiproliferative effect across tumor cell line panel (summary). Format: cell-based. Conditions: across solid and hematologic tumor cell lines (Tables 1 and 2). The method, then: Tumor cells were seeded in a Packard View 96-well plate in 100 μL of appropriate complete media at a density of 3000 or 5000 cells/well depending on the cell line growth kinetics (broadly defined as slow vs. fast). All dilutions were performed using Biomek FX workstation. The next day cells were treated with AMG 900 (11-point dose range 0.156 to 0.0003 μM) with a final DMSO concentration of 0.12% in media. After 24 hours, the media containing compound was removed and the cells were washed with complete media. The cells were then incubated in 100 μL of fresh complete media (without compound) for 48 hours. After 48 hours, the cells were fixed by adding 100 μL of fixation buffer to 100 μL of complete media. […] Quantification of individual cell nuclear area and intensity was performed based on Hoechst 33342 DNA dye fluorescence. A threshold on the nuclear area based on the DMSO-treated control well was set to quantify the number of normal size nuclei from nuclear debris and polyploidy cells. […] The dose-concentration curves and EC50 values were calculated using a 4-parameter equation.
Tumor cells were seeded in a 300 μL deep 96-well plate in 150 μL of appropriate complete media at a density of 100,000 cells/well. […] Data was acquired and analyzed by flow cytometer (LSRII). […] The concentration-response curves and EC50 values were calculated using a 4-parameter equation.

Another assay deals with HCT116 parental. Nature of the assay: ≧4N DNA content assay (FIG. 6-A). In kind it is cell-based. Conditions: Homo sapiens, HCT-116, 24 hours, read-out: cellular ≧4N DNA content EC50. The method, then:
Tumor cells were treated with AMG 900, AZD1152, MK-0457, or PHA-739358 (range concentration varied based on potency) for 24 hours and processed for cell-cycle analysis (DNA staining only) as previously described (1). Cells were analyzed on a LSRII flow cytometer using BD FACS Diva software. The concentration-response curves and corresponding EC50 values were calculated using the percentage of cells with ≧4N DNA content versus the DMSO control.
HCT116 cell lines were treated with increasing concentrations of AMG 900 or AZD1152 for 24 hours. Flow cytometry was used to assess the accumulation of cells with ≧4N DNA content expressed as a percentage of the DMSO-treated control (POC). The concentration-response curves and calculated EC50 values were determined from two independent experiments (bars, ±SD).

Several values for one entry are separate records, joined by “and”; a condition that tells them apart may be missing. Equal entries are not always repeated. Marks after values point to notes of the source that are not given here.

`Cc1csc(-c2nnc(Nc3ccc(Oc4ncccc4-c4ccnc(N)n4)cc3)c3ccccc23)c1` [AMG 900, N-(4-((3-(2-amino-4-pyrimidinyl)-2-pyridinyl)oxy)phenyl)-4-(4-methyl-2-thienyl)-1-phthalazinamine]: the EC50 – broadly, the concentration that produces a half-maximal response – in the assay on PC3 was 2 nM; in [3], 1 to 5 nM; with HCT116 parental, 2 nM. Further, the “Maximum TGI (%)” value was 73* % in the assay on COLO 205 xenograft; 85** % in the assay on NCI-H460 xenograft; 84% in assay [1]; 50* % with HCT-15 (MDR) xenograft; 87** % in the assay with MES-SA xenograft; 82** % with MDA-MB-231 xenograft. Moreover, the “Maximum TGI (%)” value in [2] was 66% and 65** %.
